Measurements: patent US20160030364A1, “Therapeutic Compositions and Uses Thereof” (MANUKA HEALTH NEW ZEALAND LIMITED, priority 2013, published 2016)

How the values were obtained:
Type in all cases: cell-based
[1] = test system: human oesophageal squamous cell carcinoma cell line (KYSE-30); assay: MTT anti-proliferative assay, KYSE-30 (Examples 3-13)
[2] = test system: human oesophageal squamous cell carcinoma cell line (KYSE-30); assay: as above; remark: listed apart in the source
Experimental: (§1) 5-phenylpenta-2,4-dienoic acid was assessed for its ability to modulate the viability and proliferation of human colorectal adenocarcinoma cells (DLD-1); human colon cancer cell line (HCT-116); human gastric carcinoma cell line (NCI-N87); and human oesophageal squamous cell carcinoma cell line (KYSE-30) as assessed by the MTT assay. The positive control, 5-fluorouracil (5-FU) was included at three concentrations; in addition to an unsupplemented cell control as a negative control in the study. The 5-phenylpenta-2,4-dienoic acid was a genuine standard with chemical structure confirmed by NMR and MS.
(§2) The four human gastrointestinal carcinoma cell lines were revived from cryostorage and cultured in the presence of the test and reference samples. An MTT assay was then performed on the cultures to determine the effect of the samples on the cell viability and proliferation.
(§3) The test sample 5-phenylpenta-2,4-dienoic acid, and all other test samples in Examples 4-12 (except tectochrysln) were Initially dissolved in pure ethanol to a concentration of around 13.35 mg/ml. Tectochrysin was initially dissolved in triethylene glycol mono-methyl ether to the same concentration. Working solutions were then prepared from the stock solutions by dilution to 15% ethanol/Hanks Balanced Salt Solution (ETOH)/HBSS to a concentration of 2 mg/mL solids. In the assay the final concentration of the samples was 200 μg/ml with a final EtOH concentration of 1.5%. Final concentrations of test compounds and propolis prepared as above are as noted in Example 3.
(§4) • 1. Human colorectal adenocarcinoma cells (ATCC CCI-221, DLD-1)(ATCC, Bethesda, Md., USA) • 2. Human gastric carcinoma cells (ATCC CRL-5822, NCI-N87)(ATCC, Bethesda, Md., USA) • 3. Human oesophageal squamous cell carcinoma (ECACC, KYSE-30)(Sigma Aldrich, Auckland, NZ) • 4. Human colon carcinoma cells (ECACC HCT-116)(Sigma Aldrich, Auckland, NZ) • 5. Penicillin-streptomycin solution: 10000 units/ml penicillin, 10 mg/ml streptomycin in 0.9% NaCl (Sigma Cat #P-0781). Stored at −20° C. • 6. For DLD-1 cells: DMEM culture medium (Invitrogen Cat #12100-046). Stored at 4° C. • 7. For NCI-N87 cells: RPMI-1640 medium modified to contain 2 mM L-glutamine, 10 mM HEPES, 1 mM sodium pyruvate, 4500 mg/L glucose, and 1500 mg/L sodium bicarbonate (Sigma R6504). Stored at 4° C. • 8. For KYSE-410 cells: RPMI-1640 medium modified to contain 2 mM L-glutamine (Sigma R6504). Stored at 4° C. • 9. For HCT-116 cells: McCoy's 5A medium modified to contain 2 mM L-glutamine (Sigma M48792). Stored at 4° C. • 10. Trypsin-EDTA solution: 0.25% Trypsin/EDTA, Invitrogen Cat#15400054 (×10 in stock). • 11. Phosphate buffered saline (PBS) (Prepared by TBL). • 12. Hanks Balanced Salt Solution (HBSS). (GIBCO Cat No. 14185-052). Stored at 4° C. • 13. Foetal Bovine Serum (GIBCO Cat #10091-148). Stored at −20° C. • 14. MTT Reagent: 100 mg/vial, (SIGMA Cat. No. M-2128) dissolved in PBS at 10 mg/ml and stored at −20° C. 5 mg/ml MTT solution will be prepared in PBS and stored at 4° C. as working solution. • 15. MTT lysis buffer: 10% sodium dodecyl sulphate (SDS)/45% Dimethyl Formamide (20 g SDS will be dissolved in 100 ml of double-distilled water (DDW), and 90 ml of Dimethyl Formamide will be added to the SDS solution). The pH will be adjusted to 4.7 by glacial acetic acid, and DDW added up to a final volume of 200 ml. • 16. 5-Fluorouracil (5-FU), (Sigma Cat. No. F-6627). Three working solutions will be prepared at 19.5 μg/ml. 6.5 μg/ml and 1.95 μg/ml dissolved in 15% Ethanol/HBSS. Final concentrations will be 1.95 μg/ml (15 μM), 0.65 μg/ml (5 μM) and 0.195 μg/ml (1.5 μM).
(§5) The medium for the propagation of the each of the cells lines is given above. Each medium was prepared following the ATCC/ECACC instructions and supplemented with penicillin-streptomycin solution (10 ml per litre). FBS (at 10%) was added just before use.
• 1. […]

[3] = test system: human colon cancer cell line (HCT-116); assay: MTT anti-proliferative assay, HCT-116 (Examples 3-12)
Experimental: as §1, §2, §3, §4, §5
• 1. […]

[4] = test system: human gastric carcinoma cell line (NCI-N87); assay: MTT anti-proliferative assay, NCI-N87 (Examples 3-12); conditions: for % stim. / Mean OD (570 nm) / inhibition at 200 µg/mL / % inhibition: 200 μg/ml; for % stim. / Mean OD (570 nm) / % inhibition: 48 hours
Experimental: as §1, §2, §3, §4, §5
• 1. […]

[5] = Examples 3-12, 200 μg/ml, 48 hours
[6] = Homo sapiens, KYSE-30, 48 h, Examples 3-12, 200 μg/ml, 48 hours
[7] = Homo sapiens, HCT-116, 48 h, 200 μg/ml

Structure (SMILES) | % stim. [2, 5] | Mean OD (570 nm) [2, 5] | inhibition at 200 µg/mL [2, 6] | % stim. ([3]; 200 μg/ml, 48 hours) | Mean OD (570 nm) ([3]; 200 μg/ml, 48 hours) | inhibition at 200 µg/mL [3, 7] | % stim. [4] | Mean OD (570 nm) [4] | inhibition at 200 µg/mL ([4]; Homo sapiens, NCI-N87, 48 h) | % inhibition [4] | further results
O=C1C[C@@H](c2ccccc2)Oc2cc(O)cc(O)c21 [Pinocembrin, reference compound] | 0% | 0.0225 | 96.3% | 0% | 0.0045 | 99.1% | 0% | 0.1214 | 72.5% | – | % inhibition ([1]; Example 13, 100 μg/ml): 50.26%; Mean OD (570 nm) ([1]; Example 13, 100 μg/ml): 0.1668; inhibition at 100 µg/mL ([1]; Homo sapiens, KYSE-30, Example 13, 100 μg/ml): 50.3%
O=c1[nH]cc(F)c(=O)[nH]1 [Sample 5-FU, 5-fluorouracil, reference compound] | – | – | – | – | – | – | – | – | – | – | inhibition at 0.65 µg/mL ([1]; Homo sapiens, KYSE-30, 48 h, Examples 3-12, 0.65 μg/ml, 48 hours): 39.4%; inhibition at 1.95 µg/mL ([1]; Homo sapiens, KYSE-30, 48 h, Examples 3-12, 1.95 μg/ml, 48 hours): 47.5%; inhibition at 0.195 µg/mL ([2]; Homo sapiens, KYSE-30, 48 h, Examples 3-12, 0.195 μg/ml, 48 hours): 23.8%; inhibition at 0.195 µg/mL ([2]; Homo sapiens, KYSE-30, Example 13, 0.195 μg/ml): 3.41%; inhibition at 0.65 µg/mL ([2]; Homo sapiens, KYSE-30, Example 13, 0.65 μg/ml): 16.6%; inhibition at 1.95 µg/mL ([2]; Homo sapiens, KYSE-30, Example 13, 1.95 μg/ml): 31.5%; inhibition at 0.195 µg/mL ([3]; Homo sapiens, HCT-116, 48 h, 0.195 μg/ml): 33.9%; inhibition at 0.65 µg/mL ([3]; Homo sapiens, HCT-116, 48 h, 0.65 μg/ml): 54%; inhibition at 1.95 µg/mL ([3]; Homo sapiens, HCT-116, 48 h, 1.95 μg/ml): 57.3%; inhibition at 0.195 µg/mL ([4]; Homo sapiens, NCI-N87, 48 h, 0.195 μg/ml): 7.52%; inhibition at 0.65 µg/mL ([4]; Homo sapiens, NCI-N87, 48 h, 0.65 μg/ml): 17.2%; inhibition at 1.95 µg/mL ([4]; Homo sapiens, NCI-N87, 48 h, 1.95 μg/ml): 16.2%
COc1cc(O)c2c(=O)cc(-c3ccccc3)oc2c1 [Tectochrysin, tectochrysin] | – | – | – | – | – | – | – | – | – | 54.0% | % inhibition [2, 5]: 87.6%; % inhibition ([3]; 200 μg/ml, 48 hours): 90.1%
O=C(O)/C=C/c1ccc(O)cc1 [p-coumaric acid, para-coumaric acid, reference compound] | 0% | 0.3243 | 46.1% | 2.6% | 0.5216 | 0% | 0% | 0.3652 | 17.3% | 17.31% | –
